# Reference: US7435732B2, “Crystalline polymorphs of (3S)-N-hydroxy-4-({4-[-(4-hydroxy-2-butynyl)oxy]phenyl}sulfonyl)-2,2-dimethyl-3-thiomorpholine carboxamide” (Wyeth, priority 2004, dated 2008)
# Read-outs that look alike come from different tables or passages of the source.
# How the values were obtained:
# [1] = Solid form conversion under humidity / ambient conditions; assay type: physicochemical
# Description: Polymorph form B is likely also an anhydrous form of apratastat. […] Form B disappears upon mild heating (e.g., at or above about 35° C.) under ambient humidity levels.
# [2] = Solid form after open pan DSC heating, by powder XRD; assay type: physicochemical
# Description: X-ray diffraction data (e.g., FIGS. 1, 4, 6 and 8) were collected using a Philips X'Pert PW-3040-MPD X-ray diffractometer (Philips, Bothell, Wash.) set at 40 kV and 40 mA. Data was collected as a continuous scan at 0.02°/sec. between […].
# DSC data (e.g., FIG. 10) were collected using a TA Instruments DSC 2920 Differential Scanning Calorimeter (TA Instruments, New Castle, Del.). Measurements were carried out in both closed pan and open pan modes on about 5-35 mg samples. The heating profile was from 25° C. to 170° C. at 5° C./min, or 25° C. to 120° C. at 5° C./min with a ten minute holding time at 120° C., or 25° C. to 135° C. at 5° C./min with a five minute holding time at 135° C., or 25° C. to 150° C. at 5° C./min with a one minute holding time at 150° C.
# A micronized sample of apratastat polymorph form A was subjected to three separate DSC experiments performed in the open pan mode as described in Example 5 above using the 120° C., 135° C., and 150° C. heating profiles. Each sample was cooled to ambient temperature and then recovered for powder X-ray diffraction (XRD) analysis as described in Example 2.
# A milled sample of apratastat polymorph form A was subjected to similar DSC conditions.
# [3] = tested on: matrix metalloproteinase (MMP); conditions: cited from earlier work
# TNF-α [4] = assay: murine lipopolysaccharide (LPS) model; assay type: in vivo
# TNF-α [5] = assay: primate lipopolysaccharide (LPS) model; assay type: in vivo
# [6] = target: T1, TNF-α converting enzyme (TACE) (Homo sapiens, UniProt P78536); assay: TACE inhibition in vitro; assay type: biochemical
# [7] = target: T1, TNF-α converting enzyme (TACE); conditions: as described in U.S. Pat. No. 6,225,311; cited from earlier work
# [8] = tested on: human synovium tissue explants from patients suffering from rheumatoid arthritis; assay: TNF-α secretion by human synovium tissue explants; assay type: cell-based
# T1 sequence (P78536 215-824, species assumed): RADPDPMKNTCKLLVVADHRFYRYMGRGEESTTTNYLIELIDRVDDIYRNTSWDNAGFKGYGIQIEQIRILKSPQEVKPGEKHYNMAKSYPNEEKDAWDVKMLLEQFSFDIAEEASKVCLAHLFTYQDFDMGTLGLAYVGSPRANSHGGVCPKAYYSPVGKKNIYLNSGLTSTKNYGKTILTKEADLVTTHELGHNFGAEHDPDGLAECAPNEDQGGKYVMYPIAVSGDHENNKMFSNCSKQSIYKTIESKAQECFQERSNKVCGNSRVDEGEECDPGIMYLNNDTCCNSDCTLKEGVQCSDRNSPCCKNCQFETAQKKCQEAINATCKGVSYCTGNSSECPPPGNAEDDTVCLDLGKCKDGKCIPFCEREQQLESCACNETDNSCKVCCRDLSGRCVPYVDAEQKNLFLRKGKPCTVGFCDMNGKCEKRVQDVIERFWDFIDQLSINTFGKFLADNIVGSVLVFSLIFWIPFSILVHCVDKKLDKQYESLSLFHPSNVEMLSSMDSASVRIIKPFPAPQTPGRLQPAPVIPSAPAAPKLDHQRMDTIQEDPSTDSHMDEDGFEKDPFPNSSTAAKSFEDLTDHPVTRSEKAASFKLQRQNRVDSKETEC
structure (smiles),measurement,setting,value
"CC1(C)SCCN(S(=O)(=O)c2ccc(OCC#CCO)cc2)[C@H]1C(=O)NO [Form B, (3S)-N-hydroxy-4-({4-[(4-hydroxy-2-butynyl)oxy]phenyl}sulfonyl)-2,2-dimethyl-3-thiomorpholinecarboxamide]",solid form stability under ambient conditions,"[1]; ambient conditions, little or no energy input",can convert back to form A
same,solid form stability upon mild heating,"[1]; at or above about 35° C., ambient humidity levels",disappears
"CC1(C)SCCN(S(=O)(=O)c2ccc(OCC#CCO)cc2)[C@H]1C(=O)NO [apratastat polymorph form A, (3S)-N-hydroxy-4-({4-[(4-hydroxy-2-butynyl)oxy]phenyl}sulfonyl)-2,2-dimethyl-3-thiomorpholinecarboxamide]",solid form stability in low-moisture environment,"[1]; about 4-5% relative humidity, at or near room temperature",a portion or all of the polymorph may convert to a new form (form B)
same,XRD form after heating,"[2]; micronized sample, 120° C. heating profile, open pan",Form C
same,XRD form after heating,"[2]; micronized sample, 135° C. heating profile, open pan",Form C
same,XRD form after heating,"[2]; micronized sample, 150° C. heating profile, open pan",Amorphous
same,XRD form after heating,"[2]; milled sample, 120° C. heating profile",Form C + D
same,XRD form after heating,"[2]; milled sample, 135° C. heating profile",Form C + D
same,XRD form after heating,"[2]; milled sample, 150° C. heating profile",Form D
"CC1(C)SCCN(S(=O)(=O)c2ccc(OCC#CCO)cc2)[C@H]1C(=O)NO [apratastat, (3S)-N-hydroxy-4-({4-[(4-hydroxy-2-butynyl)oxy]phenyl}sulfonyl)-2,2-dimethyl-3-thiomorpholinecarboxamide]",inhibition of MMP enzymes,[3],inhibitor
same,TNF-α inhibition,TNF-α [4],potent TNF-α inhibitor
same,TNF-α inhibition,TNF-α [5],potent TNF-α inhibitor
same,inhibition of TACE,[6],"potent, reversible, and competitive inhibitor"
same,inhibition of TACE,[7],inhibitor
same,inhibition of TNF-α secretion,[8],inhibits TNF-α secretion
